Measured values published in ChEMBL document CHEMBL3507680, “University of Dundee, Gates Library screen for HepG2 cell viability”.

Experiment: Human HepG2 cell viability assay in 384 well format
Type: toxicity, cell-based
Design: dose 125 nL, time 70.5 hour; concentration not given beside the values
Conditions: HepG2 cells, read-out: Inhibition

Row | Compound | cytotoxicity at 70.5 h
1 | CC(Cn1cccn1)NC(=O)Nc1ccc(F)cc1 (centres undefined) | -4.1%
2 | Cn1cnc2c1CCN(Cc1csc(-c3ccsc3)n1)C2 | 20.4%
3 | COCC1CC2(CCN(C(=O)c3ccco3)CC2)CN1C(C)C (centres undefined) | -13%
4 | c1cnn(C2CN(Cc3noc(C4CC4)n3)C2)c1 | -7.11%
5 | CN(C)c1ccc(C(=O)NCC2(c3ccccc3)CCOCC2)cc1 | -10.7%
6 | CCc1ccc(OCC(O)CN2CCN(CC)CC2)cc1 (centres undefined) | 20.5%
7 | CC(C)N1CC(c2ncc(-c3ccc4c(c3)OCCO4)[nH]2)CC1=O (centres undefined) | -5.64%
8 | CCOC(=O)CNC(=O)N1CCCC(CNC(=O)c2ccco2)C1 (centres undefined) | -1.85%
9 | O=S(=O)(NCc1ccc(S(=O)(=O)N2CCCC2)s1)c1ccc(Cl)cc1 | -12.5%
10 | Cc1nnc(C(NS(=O)(=O)c2cc(F)c(C)cc2F)C(C)C)[nH]1 (centres undefined) | -5.12%
11 | Cc1cc(CN(C)CC2(O)CCCN(CCC3CCCCC3)C2=O)no1 (centres undefined) | 48.7%
12 | Cc1c(C(=O)NC2CCCC2)nnn1-c1ccccc1 | -8.58%
13 | O=C(CC1CCC2(CC1)CCN(Cc1cccnc1)CC2)N1CC=CC1 | -8.62%
14 | CC(C)c1nn(C)c(Cl)c1CNCCn1cccn1 | 8.25%
15 | NC(=O)CS(=O)(=O)Cc1cc(Cl)c2c(c1)OCCCO2 | 13.8%
16 | CCn1nc(C)c(CCNC(=O)c2coc(CN3CCOCC3)c2)c1C | 0.862%
17 | CNC(=O)C1Cn2ccnc2C2(CCN(Cc3csc(C)n3)CC2)O1 (centres undefined) | -2.63%
18 | Cn1cc(Cl)c(CN2CCn3nc(C(=O)Nc4ccccc4)cc3C2)n1 | 32.8%
19 | Cc1cc(C)nc(Nc2cccc(C3CCCN(CCO)C3)n2)n1 (centres undefined) | -4.13%
20 | c1ccc2c(c1)CC(Cc1cc(N3CCCC3)cnn1)CO2 (centres undefined) | -7.55%
21 | Cc1nccc(N[C@H]2CN(CCC(=O)NC3CCCC3)C[C@@H]2C2CC2)n1 | -2.83%
22 | CC(O)CN1CCN(C(=O)c2ccc(N(C)C)nc2)CC1 (centres undefined) | 12%
23 | Cn1cnc2c1C(COCC1CC1)CN(Cc1ccc3c(c1)OCO3)C2 (centres undefined) | 36.5%

Row | Compound | cytotoxicity at 70.5 h
24 | O=C(CCc1cn[nH]c1)N1C[C@H](CO)C[C@H](CN2CCOCC2)C1 | -8.81%
25 | CC(=O)N(CCc1ccccc1)CC(=O)NC(C)(C)C#N | -2.72%
26 | Cc1nn(C)c(C)c1C1CCCN1CCCc1nc2ccccc2o1 (centres undefined) | -8.55%
27 | Cc1ccc(N2CCOC(C)(C(=O)N(C)C)C2)nn1 (centres undefined) | -6.16%
28 | COc1ccc(NC(=O)NCCCn2nc3ccccn3c2=O)cc1 | -3.39%
29 | Cc1cc(C)c(C(=O)NCCNc2ncnc3ccccc23)c(=O)[nH]1 | -2.04%
30 | CN1CCC(N(C)C[C@H]2CC[C@@H](Cc3ccc4occc4c3)O2)CC1 | 3.05%
31 | Cc1nnsc1C(=O)NCc1cccnc1N1CCCC(O)C1 (centres undefined) | -15.1%
32 | CC(C)(C)c1nc(CN2CCCC(Cn3cncn3)C2)no1 (centres undefined) | -13.7%
33 | COc1cc(NCc2ccccc2-n2cncn2)nc(N)n1 | -6.05%
34 | Cc1c(C(=O)N2CCC3(CCC(=O)N(CCN(C)C)C3)CC2)ccn1C | 0.579%
35 | COC(C)c1cccc(NCc2ccsc2)c1 (centres undefined) | -2.9%
36 | CCC1CN(C(=O)c2cncc(C)c2)CCC(=O)N1Cc1ccccc1 (centres undefined) | -3.22%
37 | Cc1nc(CN(C)S(=O)(=O)c2ccc(F)cc2Br)no1 | 14.6%
38 | Cc1ccc(C(=O)N2C[C@@H]3CN(S(C)(=O)=O)CCO[C@@H]3C2)o1 | -0.0736%
39 | CS(=O)(=O)N1CCCC12CCCN(C(=O)c1ccc[nH]1)C2 (centres undefined) | 9.82%
40 | Cn1ccnc1CN1CCC2(CC1)CCN(Cc1ccoc1)C2 | -2.31%
41 | Cc1cc(NCCCNS(C)(=O)=O)nc2ccccc12 | 2.5%
42 | CCc1ncnc2c1CCN(C(=O)c1cccn1C)CC2 | 20.2%
43 | CC(C)NC(=O)CCNC(=O)c1cc(F)ccc1NS(C)(=O)=O | 15.1%
44 | COc1ccc(-c2cn(CCn3c(C)cc(C)nc3=O)nn2)cn1 | -9.73%
45 | Cn1c(Cn2cccn2)nnc1C1CCN(Cc2ccccc2Cl)CC1 | -4.12%
46 | CSc1nccc(N2CCC3(CCCN(Cc4ccc(F)cc4)C3)C2)n1 (centres undefined) | -3.25%

Row | Compound | cytotoxicity at 70.5 h
47 | COC1CCN(S(=O)(=O)N2CCC3(CCCNC3=O)C2)CC1 (centres undefined) | -0.998%
48 | CC(C)c1cc(NC(=O)CN2CCc3nn(C)c(=O)cc3C2)on1 | -4.73%
49 | CNC(=O)C1(c2cnccn2)CCCN1C(=O)c1cccc(C)n1 (centres undefined) | -5.53%
50 | COCc1ccccc1C(=O)NCCCN1CCCC1C(=O)N(C)C (centres undefined) | 7.28%
51 | Cc1nc2cc(=O)[nH]n2c(C)c1CNC(=O)C(C)(C)c1ccccc1 | -1.88%
52 | COc1ccc(-c2ccncc2)cc1CNC1CCCC1 | -4.27%
53 | COCC1CN(Cc2ccoc2)Cc2cn(CC3CCOCC3)nc21 (centres undefined) | -9.14%
54 | Cc1cnc(Cn2cc(-c3cccc(C(C)N(C)C)c3)nn2)cn1 (centres undefined) | -4.71%
55 | N#Cc1ccccc1OCCN1CCn2c(nnc2C2CC2)C1 | 5.39%
56 | CS(=O)(=O)N1CC2(CCN(C3CCCCC3)C2)Cc2ccccc21 (centres undefined) | 0.278%
57 | O=C(Nc1cccc(OC(F)F)c1)C1CN(S(=O)(=O)C2CC2)C1 | 0.345%
58 | O=C(NCc1cccnc1)[C@H]1CC[C@@H]2[C@@H](CCN2c2ncccn2)O1 | -6.01%
59 | O=S1(=O)C[C@@H]2[C@H](C1)N(Cc1ncc[nH]1)CCN2C/C=C/c1ccccc1 | -7.45%
60 | CC(C)c1cc(NCC2(N(C)C)CCCC2)ncn1 | -2.85%
61 | Clc1cccc(CNC2CCN(CCc3ccncc3)CC2)c1 | 0.526%
62 | NS(=O)(=O)c1cnc(NCC2(c3ccccc3)CCC2)s1 | -2.17%
63 | COCCN1CCN(CCCS(C)(=O)=O)CC1C (centres undefined) | 42.9%
64 | O=C(CCn1ccc2ccccc21)Nc1ccnn1CC1CCOC1 (centres undefined) | -16.3%
65 | Cc1ccccc1N1CCN(C(=O)c2ccc[nH]2)C(C)C1 (centres undefined) | -2.71%
66 | CC(=O)N[C@@H](CC(C)C)C(=O)N1CCC(n2cc(CC(C)C)nn2)CC1 | 6.61%
67 | CCN1CCC(NC(=O)CN2CCCC2Cn2cc(C)cn2)CC1 (centres undefined) | 0.649%
68 | O=C(NCCCO)Nc1cccc(Cl)c1F | -8.31%
69 | COc1c(F)cc(CN2CCCC3(CC2)CNC(=O)O3)cc1Cl (centres undefined) | 5.1%

Row | Compound | cytotoxicity at 70.5 h
70 | O=C(Nc1ccccn1)c1cncc(C2CCNCC2)n1 | -6.06%
71 | CCc1ccc(C2CC(=O)Nc3cc(OC)c(NS(C)(=O)=O)cc32)o1 (centres undefined) | -3.63%
72 | Cc1nc(O)cc(C2CCN(C(=O)c3ccsc3)CC2)n1 | -5.48%
73 | CC(=O)N1CC2(CCCN2Cc2ccc(Cl)cc2)Cc2ccccc21 (centres undefined) | 31.4%
74 | COc1cc(CNC2CCc3nc(C)nn3C2)cc2c1OCO2 (centres undefined) | -5.53%
75 | Cc1ncsc1CN1Cc2cn(C)nc2C(COCC2CC2)C1 (centres undefined) | 11.6%
76 | Cc1nc(C)n(CC2CCCN(Cc3ccc4c(c3)OCCO4)C2)n1 (centres undefined) | -1.48%
77 | CN(CCC(F)(F)F)C(=O)c1nc(S(C)(=O)=O)n2ccccc12 | 25.3%
78 | COc1nccnc1N1CCC2(CCCN(C(C)C)C2=O)C1 (centres undefined) | -4.89%
79 | COc1cc(C(=O)NS(=O)(=O)c2cncc(Br)c2)cc(Cl)c1OC | -15.8%
80 | Cc1cnn(C2CN(CC(O)c3ccccc3)C2)c1 (centres undefined) | 27.4%
81 | CN(Cc1cc(C2CC2)[nH]n1)C(=O)C(c1cccnc1)N1CCCC1 (centres undefined) | -3.32%
82 | O=C(Cc1cccs1)N1CCOC(c2cccc(O)c2)C1 (centres undefined) | 0.631%
83 | CC(CNC(=O)c1cc(Cn2cnc3ccccc32)[nH]n1)N1CCCC1 (centres undefined) | -7.82%
84 | CN1CCN(C(=O)c2cccc(CN3CCOCC3)c2)CC1 | -2.6%
85 | NCC1Cc2cccc(-c3nccc(N4CCC(O)CC4)n3)c2O1 (centres undefined) | 7.11%
86 | Cc1ccccc1N1CCN(c2cc(N(C)C)ncn2)C(C)C1 (centres undefined) | -9.42%
87 | Cc1nnc(C[C@@H]2COC[C@H]3CN(C(=O)c4ccco4)C[C@@H]23)o1 | -9.01%
88 | Cc1ccc(-n2c(COC(C)C)n[nH]c2=O)cc1 | -2.37%
89 | CCN(CC)c1ccc(C(=O)N2CCCC(n3cncn3)C2)cn1 (centres undefined) | -4.12%
90 | Cc1noc(CN2CCN(CCS(C)(=O)=O)CC2)n1 | -2.73%
91 | Cc1cc(C(=O)NC2CCN(CC(N)=O)CC2)nn1C(C)(C)C | -18.9%
92 | Cc1nnc(NCCC(=O)N(C)Cc2ccccc2)c(C#N)c1C | 3.39%

Row | Compound | cytotoxicity at 70.5 h
93 | OCC1CCCN1c1cc(NCc2cccs2)ncn1 (centres undefined) | 17.3%
94 | CCc1nc(N2CCN(c3ncccc3C#N)CC2)c2cnn(C)c2n1 | 22%
95 | CCOc1ccccc1N(C)C(=O)c1ccc(Cl)cn1 | 21.8%
96 | O=C(NCCn1ccnc1)c1csc2c1CCCC2 | -10.8%
97 | O=C1CCC(c2ccc(Cl)cc2)=NN1CN1CCCCCC1 | -4.16%
98 | CNc1nc2c(s1)C(c1ccc(Cl)cc1Cl)CC(=O)N2 (centres undefined) | -5.21%
99 | CNC(=O)CS(=O)(=O)C1CCN(S(=O)(=O)c2cccc(Cl)c2C)CC1 | -9.92%
100 | CCN(CC)CCN1CCO[C@H]2[C@@H](OCc3ccncc3)CC[C@@H]21 | -1.93%
101 | CCn1cnnc1CNC(=O)NCC(C(C)C)N1CCC(C)CC1 (centres undefined) | 10.3%
102 | O=C(COc1ccccc1)NCC1CC1 | 9.36%
103 | CCC(=O)c1ccc(OCC(=O)N(C)C(C)c2ccon2)cc1 (centres undefined) | -13.2%
104 | CS(=O)(=O)N1CCC(O)(Cn2c(C3CC3)nc3ccccc3c2=O)CC1 | -1.88%
105 | Cn1c(Cn2ccnc2)nnc1C1CCCN(Cc2ccncc2)C1 (centres undefined) | 14%
106 | O=C(NC[C@H]1OC[C@@H](NC(=O)C2CCCC2)[C@@H]1O)c1ccncc1 | 13.7%
107 | Cc1nc(CN(C)C2CCN(CCCOc3ccccc3)C2)no1 (centres undefined) | 39.5%
108 | Cc1ccnc(NC(=O)c2[nH]nc(C(C)C)c2Br)c1 | 19.7%
109 | c1cnnc(-c2noc(COCC3CCCO3)n2)c1 (centres undefined) | -3.34%
110 | Cc1cnn(CCNCC(=O)N2CCN(c3ccccc3)CC2)c1 | 21.4%
111 | O=c1ccc2c([nH]1)CCC(NS(=O)(=O)C1CC1)C2 (centres undefined) | -4.74%
112 | O=C(Nc1ccc(F)cc1F)N(CCC(F)(F)F)C[C@H](O)CO | -12.9%
113 | O=C(c1ccc(N2CCCC2)nn1)N1CCCC(n2cccn2)C1 (centres undefined) | -1.11%
114 | Cc1nc(C)c(C(=O)NCc2nc3cccc(C)c3n2C)o1 | -0.751%
